This note sets out measurements from PubChem BioAssay AID1259411 (Chemical Carcinogenesis Research Information System (CCRIS), 2018).

Calls of active or inactive are those of the source. How the calls were made is not given here.

The series deals with rodent carcinogenicity bioassays, tumor incidence. The series can be described thus: CCRIS carcinogenicity studies. The gist of the method:
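NCI-built, expert-reviewed records of carcinogenicity and related test outcomes (mutagenicity, tumor promotion/inhibition) compiled from published and report sources, historical span 1985-2011, not updated.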

For the molecule `Cc1cc2c(nc1N)[nH]c1ccccc12`, the carcinogen call is, setting by setting: (Species: MOUSE, Strain/Sex: CDF1/FEMALE, Route: ORAL, Dose: 0, 0.08% IN DIET FOR UP TO 685 D (STUDY DURATION: 685 D), Tumor Site: Type of Lesion: LIVER: HEPATOCELLULAR ADENOMA OR CARCINOMA, BLOOD VESSELS: HEMANGIOENDOTHELIOMA OR HEMANGIOENDOTHELIAL SARCOMA) “active; positive”; (Species: MOUSE, Strain/Sex: CDF1/MALE, Route: ORAL, Dose: 0, 0.05% IN DIET FOR UP TO 685 D (STUDY DURATION: 685 D), Tumor Site: Type of Lesion: LIVER: HEPATOCELLULAR ADENOMA OR CARCINOMA, BLOOD VESSELS: HEMANGIOENDOTHELIOMA OR HEMANGIOENDOTHELIAL SARCOMA) “active; positive”; (Species: RAT, Strain/Sex: F344/MALE, Route: ORAL, Dose: 0, 0.01, 0.02% IN DIET FOR 100 WK (STUDY DURATION: 100 WK), Dose: 0, 0.01, 0.02% IN DIET FOR 100 WK (STUDY DURATION: 100 WK), Tumor Site: Type of Lesion: LIVER: HEPATOCELLULAR CARCINOMA, PANCREAS: ACINAR CELL ADENOMA, SKIN (SUBCUTIS): FIBROMA, Tumor Site: Type of Lesion: LIVER: HEPATOCELLULAR CARCINOMA, PANCREAS: ACINAR CELL ADENOMA, SKIN (SUBCUTIS): FIBROMA) “active; positive”.
For the molecule `Cc1[nH]cnc1CSCCN=C(NC#N)N(C)N=O`, the carcinogen call is, setting by setting: (Species: MOUSE, Strain/Sex: B6C3F1/FEMALE, Route: ORAL, Dose: 0, 18.8, 190 MG/D IN DRINKING WATER FOR LIFE ADMINISTERED TO MICE OF MOTHERS EXPOSED TO SAME DOSES THROUGH PREGNANCY AND, Dose: 0, 18.8, 190 MG/D IN DRINKING WATER FOR LIFE ADMINISTERED TO MICE OF MOTHERS EXPOSED TO SAME DOSES THROUGH PREGNANCY AND) “inactive; negative”; (Species: MOUSE, Strain/Sex: B6C3F1/MALE, Route: ORAL, Dose: 0, 18.8, 190 MG/D IN DRINKING WATER FOR LIFE ADMINISTERED TO MICE OF MOTHERS EXPOSED TO SAME DOSES THROUGH PREGNANCY AND, Dose: 0, 18.8, 190 MG/D IN DRINKING WATER FOR LIFE ADMINISTERED TO MICE OF MOTHERS EXPOSED TO SAME DOSES THROUGH PREGNANCY AND) “inactive; negative”; (Species: MOUSE, Strain/Sex: C57BL/FEMALE, Route: ORAL, Dose: 0, 18.8, 190 MG/D IN DRINKING WATER BEGINNING AT 7-8 WK OF AGE AND CONTINUING FOR STUDY DURATION (STUDY DURATION: LIFE S, Dose: 0, 18.8, 190 MG/D IN DRINKING WATER BEGINNING AT 7-8 WK OF AGE AND CONTINUING FOR STUDY DURATION (STUDY DURATION: LIFE S) “inactive; negative”; (Species: RAT, Strain/Sex: F344/FEMALE, Route: ORAL, Dose: 0, 150 MG/L IN DRINKING WATER 5D/WK FOR 106 WK FOR A TOTAL DOSE OF 0, 1600 MG (STUDY DURATION: 131 WK), Dose: 0, 150 MG/L IN DRINKING WATER 5D/WK FOR 106 WK FOR A TOTAL DOSE OF 0, 1600 MG (STUDY DURATION: 131 WK)) “inactive; negative”; (Species: RAT, Strain/Sex: F344/MALE, Route: ORAL, Dose: 0, 150 MG/L IN DRINKING WATER 5D/WK FOR 106 WK FOR A TOTAL DOSE OF 0, 1600 MG (STUDY DURATION: 131 WK), Dose: 0, 150 MG/L IN DRINKING WATER 5D/WK FOR 106 WK FOR A TOTAL DOSE OF 0, 1600 MG (STUDY DURATION: 131 WK)) “inactive; negative”; (Species: RAT, Strain/Sex: SPRAGUE-DAWLEY/FEMALE, Route: GAVAGE, Dose: 0, 50, 500 MG/KG 2/WK FOR 1 YR (STUDY DURATION: LIFETIME), Dose: 0, 50, 500 MG/KG 2/WK FOR 1 YR (STUDY DURATION: LIFETIME)) “inactive; negative”. The carcinogen call (Species: RAT, Strain/Sex: SPRAGUE-DAWLEY/MALE, Route: GAVAGE, Dose: 0, 50, 500 MG/KG 2/WK FOR 1 YR (STUDY DURATION: LIFETIME), Dose: 0, 50, 500 MG/KG 2/WK FOR 1 YR (STUDY DURATION: LIFETIME)) was “inactive; negative”.
`CCN(CC)c1ccc2c(-c3ccccc3C(=O)O)c3ccc(=[N+](CC)CC)cc-3oc2c1`: the carcinogen call reads like this: (Species: MOUSE, Strain/Sex: ICR/FEMALE, Route: DERMAL, Dose: 0, 1 MG IN 0.1 ML DISTILLED WATER 2/WK FOR A MEAN TOTAL DOSE OF 121.4 MG (STUDY DURATION: 18 MO)) “inactive; negative”; (Species: MOUSE, Strain/Sex: ICR/MALE, Route: DERMAL, Dose: 0, 1 MG IN 0.1 ML DISTILLED WATER 2/WK FOR A MEAN TOTAL DOSE OF 121.4 MG (STUDY DURATION: 18 MO)) “inactive; negative”.
On to `CN1[C@@H]2CC[C@H]1CC(OC(=O)C(CO)c1ccccc1)C2` (some centres not stated), for which the carcinogen call (Species: RAT, Strain/Sex: SPRAGUE-DAWLEY/FEMALE, Route: INTRAPERITONEAL, Dose: 0, 25 UG/KG BW 2/D FOR 5 D TO VIRGIN FEMALE RATS (STUDY DURATION: 28 MO)) was “inactive; negative”.
`CCCCCc1cc(O)c2c(c1)OC(C)(C)[C@@H]1CCC(C)=C[C@@H]21`: the carcinogen call was “equivocal” (Species: MOUSE, Strain/Sex: B6C3F1/FEMALE, Route: GAVAGE, Dose: 0, 125, 250, 500 MG/KG BW IN CORN OIL FOR 105-106 WK (STUDY DURATION: 105-106 WK), Dose: 0, 125, 250, 500 MG/KG BW IN CORN OIL FOR 105-106 WK (STUDY DURATION: 105-106 WK), Tumor Site: Type of Lesion: THYROID GLAND: FOLLICULAR CELL ADENOMA); “equivocal” (Species: MOUSE, Strain/Sex: B6C3F1/MALE, Route: GAVAGE, Dose: 0, 125, 250, 500 MG/KG BW IN CORN OIL FOR 104-105 WK (STUDY DURATION: 104-105 WK), Dose: 0, 125, 250, 500 MG/KG BW IN CORN OIL FOR 104-105 WK (STUDY DURATION: 104-105 WK), Tumor Site: Type of Lesion: THYROID GLAND: FOLLICULAR CELL ADENOMA); “inactive; negative” (Species: RAT, Strain/Sex: F344/FEMALE, Route: GAVAGE, Dose: 0, 12.5, 25, 50 MG/KG BW IN CORN OIL FOR 104-105 WK (STUDY DURATION: 104-105 WK), Dose: 0, 12.5, 25, 50 MG/KG BW IN CORN OIL FOR 104-105 WK (STUDY DURATION: 104-105 WK)); “inactive; negative” (Species: RAT, Strain/Sex: F344/MALE, Route: GAVAGE, Dose: 0, 12.5, 25, 50 MG/KG BW IN CORN OIL FOR 104-105 WK (STUDY DURATION: 104-105 WK), Dose: 0, 12.5, 25, 50 MG/KG BW IN CORN OIL FOR 104-105 WK (STUDY DURATION: 104-105 WK)).
With `CCC(C)n1c(=O)[nH]c(C)c(Br)c1=O` (configuration not stated), the carcinogen call (Species: Mouse, Strain/Sex: CD-1/Female (80/sex/dose), Route: Oral, Dose: 0, 250, 1250, 5000 ppm in diet for 18 mo, Dose: 0, 250, 1250, 5000 ppm in diet for 18 mo) was “inactive; negative; purity 95%”; the carcinogen call (Species: Mouse, Strain/Sex: CD-1/Male (80/sex/dose), Route: Oral, Dose: 0, 250, 1250, 5000 ppm in diet for 18 mo, Dose: 0, 250, 1250, 5000 ppm in diet for 18 mo, Tumor Site: Type of Lesion: Liver: significant increase in combined hepatocellular adenomas and carcinomas at highest dose, liver lesions (neoplasti) was “active; positive: purity 95%”; the carcinogen call (Species: Rat, Strain/Sex: Crl:CD (BR)/Female (62/sex/group), Route: Oral, Dose: 0, 50, 250, 2500 ppm in diet for 2 yr, Dose: 0, 50, 250, 2500 ppm in diet for 2 yr) was “inactive; negative (mtd may have been exceeded); purity: 95-99%”; the carcinogen call (Species: Rat, Strain/Sex: Crl:CD (BR)/Male (62/sex/group), Route: Oral, Dose: 0, 50, 250, 2500 ppm in diet for 2 yr, Dose: 0, 50, 250, 2500 ppm in diet for 2 yr) was “inactive; negative (mtd may have been exceeded); purity: 95-99%”.
As for `[Be]`, the carcinogen call is “active; positive” (Species: RAT, Strain/Sex: WISTAR/FEMALE, Route: INTRATRACHEAL, Dose: 0, 0.5, 2.5 MG, SINGLE DOSE IN SALINE SUSPENSION, Tumor Site: Type of Lesion: LUNG) and “active; positive” (Species: RAT, Strain/Sex: WISTAR/FEMALE, Route: INTRATRACHEAL, Dose: 0.5, 2.5 MG/RAT IN SALINE SUSPENDED ONCE, Tumor Site: Type of Lesion: LUNG).
As to `S=P(N1CCOCC1)(N1CC1)N1CC1`, the carcinogen call (Species: MOUSE, Route: INTRAPERITONEAL, Tumor Site: Type of Lesion: LUNG) is “active; positive”.
For the molecule `CCCCN(N=O)C(=O)CCC`, under “Species: RAT, Strain/Sex: F344/MALE,FEMALE, Route: SUBCUTANEOUS, Dose: 38 UMOL/KG IN OLIVE OIL 1/WK FOR 10 WK, Tumor Site: Type of Lesion: INJECTION SITE: MALIGNANT FIBROUS HISTIOCYTOMA, LUNG: ADENOMA”, the carcinogen call was “active; positive”.
On to `FC(F)OC(Cl)C(F)(F)F` (configuration not stated), for which the carcinogen call by setting is: (Species: MOUSE, Strain/Sex: SWISS/FEMALE, Route: INHALATION, Dose: 0, 0.1, 0.4% IN AIR 4 HR/D 5 D/WK FOR 78 WK (STUDY DURATION: 81 WK), Dose: 0, 0.1, 0.4% IN AIR 4 HR/D 5 D/WK FOR 78 WK (STUDY DURATION: 81 WK)) “inactive; negative”; (Species: MOUSE, Strain/Sex: SWISS/MALE, Route: INHALATION, Dose: 0, 0.1, 0.4% IN AIR 4 HR/D 5 D/WK FOR 78 WK (STUDY DURATION: 81 WK), Dose: 0, 0.1, 0.4% IN AIR 4 HR/D 5 D/WK FOR 78 WK (STUDY DURATION: 81 WK)) “inactive; negative”.
